“And” between values parts separate entries of the source, which are not always exact repeats. Equal values may be shown once.
Columns and labels:
[1] = test system: Pezicula malicorticis 160622 (DSM 62715); assay: Apple test (wound inoculation), Pezicula malicorticis 160622; type: in vivo; settings: apples Elstar Fuchshof, 20° C., 16 days; Aureobasidium overall 1×10^7 cells/ml; fludioxonil 0.125 g/l, cyprodinil 0.1875 g/l
Protocol: The effect of the Aureobasidium pullulans strains AP 241 (DSM 32467), AP 268 (DSM 32468), DSM 14940 and DSM 14941 (individually or in combination), together with the chemical fungicides cyprodinil and fludioxonil (individually or in combination), against the fungal plant pathogens Botrytis and Neofabreaea was determined in an apple test. 12 untreated apples of the same cultivar, having a uniform degree of maturity and size, were used for each treatment. Prior to the test, the apples were surface-sterilized for three minutes in 70% ethanol and dried in a clean bench. Four wounds, having a wound diameter of 5 mm, were made at equal distances in each apple in the equatorial plane between the calyx and the stem using a sterile pipette tip. Immediately after the creation of the four artificial wounds, 10 μl of different test solutions (preparations) was applied to each apple. Thereafter, the apples were stored. An area of decay formed around the wounds, the diameter of the area representing a measure of the spread of the infection with the pathogen. For the evaluation, the diameters of the punctures of 0.5 cm each were deducted from the diameter of the decay area.
The 4 test solutions that were each placed in one of the 4 wounds of each apple were: • 1. Pathogen (negative control) • 2. Pathogen and Aureobasidium pullulans (individually or in combination) • 3. Pathogen and chemical fungicide (individually or in combination) • 4. Pathogen and Aureobasidium pullulans (individually or in combination) and chemical fungicide (individually or in combination)
(§1) The effectiveness of the inhibition of the pathogen was calculated for test solutions 2 to 4 from the diameters of the areas of decay, which were measured at the end of the storage period. […]
(§2) According to the Colby formula (S. R. Colby “Calculating synergistic and antagonistic responses of herbicide combinations,” Weeds 15, pages 20 to 22, 1967), expected values (E) of the effect of the combination of Aureobasidium and the chemical fungicide (test solution 4) were calculated from the effectiveness (WG) figures of the individual components in test solutions 2 and 3 according to the following formula: […]
If the measured effectiveness of the combination of the Aureobasidium pullulans strains and the chemical fungicide (test solution 4) is greater than the calculated expected value (E), this is referred to as a synergistic effect (the individual components potentiate each other in an over-additive effect). The synergism factor is a measure of the synergistic effect and was calculated as the quotient from the effectiveness of the combination of the substances or components (test solution 4) and the calculated expected value (E). […]

[2] = test system: Botrytis cinerea Bc97 (DSM 32469); assay: Apple test (wound inoculation), Botrytis cinerea Bc97; type: in vivo; settings: apples Jonagold Honsel, 20° C., 6 days; Aureobasidium 5×10^6 cells/ml total; fludioxonil 0.125 g/l, cyprodinil 0.1875 g/l
Protocol: The effect of the Aureobasidium pullulans strains AP 241 (DSM 32467), AP 268 (DSM 32468), DSM 14940 and DSM 14941 (individually or in combination), together with the chemical fungicides cyprodinil and fludioxonil (individually or in combination), against the fungal plant pathogens Botrytis and Neofabreaea was determined in an apple test. 12 untreated apples of the same cultivar, having a uniform degree of maturity and size, were used for each treatment. Prior to the test, the apples were surface-sterilized for three minutes in 70% ethanol and dried in a clean bench. Four wounds, having a wound diameter of 5 mm, were made at equal distances in each apple in the equatorial plane between the calyx and the stem using a sterile pipette tip. […]
as §1, §2

Compound	Effectiveness (decrease in diameter of decay area vs. negative control) [1]	Mean diameter of decay areas [1]	Mean diameter of decay areas [2]
N#Cc1c[nH]cc1-c1cccc2c1OC(F)(F)O2 [fludioxonil]	−3.8%	1.91 cm	
Cc1cc(C2CC2)nc(Nc2ccccc2)n1 [cyprodinil]	17.0%	1.61 cm	2.80 cm and 3.14 cm and 2.21 cm and 2.52 cm and 3.63 cm and 3.51 cm and 3.38 cm
